For 15 molecules, Ki and inhibition results are on record in ChEMBL document CHEMBL1125699, “Development of a novel series of (2-quinolinylmethoxy)phenyl-containing compounds as high-affinity leukotriene D4 receptor antagonists. 4. Addition of chromone moiety enhances leukotriene D4 receptor binding affinity” (J Med Chem, 1991).

pKi: −log10 of the molar value.

Usually pKi stands for the Ki on a negative log10 scale, so that one unit is a factor of ten. A higher pKi goes with a low Ki. In general, inhibition refers to the drop in the measured response relative to a control, in per cent.

For assay [1], the target named is T1, Cysteinyl leukotriene receptor 1 (Cavia porcellus, UniProt Q2NNR5).
T1 sequence (Q2NNR5 whole entry): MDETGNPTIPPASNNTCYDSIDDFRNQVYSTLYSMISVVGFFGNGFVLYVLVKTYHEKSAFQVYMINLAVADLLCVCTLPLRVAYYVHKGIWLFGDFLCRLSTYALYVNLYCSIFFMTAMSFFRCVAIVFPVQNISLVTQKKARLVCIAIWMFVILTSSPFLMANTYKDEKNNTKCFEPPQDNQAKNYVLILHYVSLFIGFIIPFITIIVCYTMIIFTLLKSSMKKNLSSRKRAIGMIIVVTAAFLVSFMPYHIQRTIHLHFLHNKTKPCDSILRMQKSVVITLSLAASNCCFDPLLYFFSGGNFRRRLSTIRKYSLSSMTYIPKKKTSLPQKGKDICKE
In words: Binding affinity against LTD4 receptor in guinea pig lung membranes. The class given is cell membranes.

For assay [2], the target named is T2, Cysteinyl leukotriene receptor 1 (Cavia porcellus) (UniProt Q2NNR5).
T2 sequence (whole entry): T1 sequence (Q2NNR5 whole entry)
In words: Radioligand binding affinity against LTD4 receptor in guinea pig lung membranes at the concentration of 30 nM. The conditions noted are these: Membrane. Format: cell membranes.

Regarding `O=C1CC(c2nnn[nH]2)Oc2cc(OCc3cccc(OCc4ccc5ccccc5n4)c3)ccc21` (stereo not given), the pKi in assay [1] is 10.00.

As for `O=C1CC(c2nnn[nH]2)Oc2c(COc3ccc(OCc4ccc5ccccc5n4)cc3)cccc21` (stereo not given), in assay [1], the pKi is 7.82.

Regarding `CC1(CCC(=O)O)CC(=O)c2ccc(OCc3cccc(OCc4ccc5ccccc5n4)c3)cc2O1` (stereo not given), in assay [1], the pKi is 8.92.

As to `CCCc1c(OCc2cccc(OCc3ccc4ccccc4n3)c2)ccc2c1OC(C(=O)O)CC2=O` (stereo not given), the inhibition in assay [2] amounted to 22%.

`O=C(O)c1cc(=O)c2ccc(OCc3ccc4ccccc4n3)cc2o1`: the pKi in assay [1] was 5.15.

On to `O=C1CC(C(=O)O)Oc2ccc(Cl)c(OCc3ccc(OCc4ccc5ccccc5n4)cc3)c21` (stereo not given), for which, in assay [1], the pKi was 7.74. This pKi is 2.59 log units higher than that of the molecule before.

Turning to `O=C1CC(c2nnn[nH]2)Oc2cc(CCc3cccc(OCc4ccc5ccccc5n4)c3)ccc21` (stereo not given), the pKi in assay [1] is 9.52. This pKi is 1.78 log units higher than that of the molecule before.

On to `O=C1CC(C(=O)O)Oc2c(COc3ccc(OCc4ccc5ccccc5n4)cc3)cccc21` (stereo not given), for which, in assay [1], the pKi was 7.89.

Consider `CCOC(=O)C1CC(=O)c2ccc(COc3cccc(OCc4ccc5ccccc5n4)c3)cc2O1` (stereo not given), for which the pKi in assay [1] is 7.52.

`O=C1CC(C(=O)O)Oc2cc(COc3ccc(OCc4ccc5ccccc5n4)cc3)ccc21` (stereo not given) had a pKi in assay [1] of 8.20.

Molecule `O=C1CC(c2nnn[nH]2)Oc2cc(/C=C/c3cccc(OCc4ccc5ccccc5n4)c3)ccc21` (stereo not given) gave a pKi in assay [1] of 8.60.

Consider `O=C(Nc1cccc2c1OC(c1nnn[nH]1)CC2=O)c1ccc(OCc2ccc3ccccc3n2)cc1` (stereo not given), for which the pKi in assay [1] was 8.96.

As for `O=C1CC(C(=O)O)Oc2cc(OCc3cccc(OCc4ccc5ccccc5n4)c3)ccc21` (stereo not given), in assay [1], the pKi is 8.68.

For the molecule `O=C1CC(C(=O)O)Oc2ccc(OCc3cccc(OCc4ccc5ccccc5n4)c3)cc21` (stereo not given), in assay [1], the negative-log Ki (pKi) is 8.89.

In assay [1], `O=C1CC(c2nnn[nH]2)Oc2cc(COc3cccc(OCc4ccc5ccccc5n4)c3)ccc21` (stereo not given) had a pKi of 9.92. Against the preceding molecule, the pKi is 1.03 log units higher.
